# Paper doi:10.1101/2024.08.16.608276v1, “The kinetoplastid kinetochore protein KKT23 acetyltransferase is a structural homolog of GCN5 that acetylates the histone H2A C-terminal tail” (biorxiv, 2024)
# Molecular target: T1, KKT23^2–348 (Trypanosoma brucei, UniProt Q38AU6)
# T1 construct: gene Tb10.70.0180; full-length recombinant protein (residues 2-348), E. coli, His-tag cut by TEV, monomer, calculated 39 kDa; strain printed for the cell lines only
# T1 sequence (Q38AU6 2-348): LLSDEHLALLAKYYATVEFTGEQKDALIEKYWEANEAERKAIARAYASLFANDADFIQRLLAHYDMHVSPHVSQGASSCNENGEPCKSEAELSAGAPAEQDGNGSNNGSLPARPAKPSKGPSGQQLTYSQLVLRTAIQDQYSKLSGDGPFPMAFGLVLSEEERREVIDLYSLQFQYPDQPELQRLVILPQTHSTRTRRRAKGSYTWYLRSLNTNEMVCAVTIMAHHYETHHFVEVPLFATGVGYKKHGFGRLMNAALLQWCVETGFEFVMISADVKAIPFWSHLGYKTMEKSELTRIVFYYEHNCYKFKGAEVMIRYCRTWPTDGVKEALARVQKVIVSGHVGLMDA
# Assay: histone acetyltransferase assay, anti-acetyl-lysine immunoblot and mass spectrometry
# Assay type: biochemical
# Conditions: co-substrate reconstituted T. brucei nucleosomes (H2A C-terminal tail); up to 200 uM acetyl-CoA; pH 8.0, 30 C, 1 h
structure (smiles),measurement,value
CC(=O)SCCNC(=O)CCNC(=O)[C@H](O)C(C)(C)COP(=O)(O)OP(=O)(O)OC[C@H]1O[C@@H](n2cnc3c(N)ncnc32)[C@H](O)[C@@H]1OP(=O)(O)O [acetyl coenzyme A],"histone acetyltransferase assay, anti-acetyl-lysine immunoblot and mass spectrom",recombinant KKT23 was incubated with acetyl-CoA and nucleosomes reconstituted using either T. brucei or H. sapiens
